Laboratory results taken from patent US8465769B2, “Pharmaceutical composition with controlled active ingredient release for active ingredients with good solubility in water” (Evonik Roehm GmbH, priority 2006, dated 2013).
In brackets after ≈: the same amount, converted by molar mass. Where a name gives a salt, the structure may show the parent alone. Read-outs that look alike come from different tables or passages of the source.

Assay: Solubility of the active ingredients in water
Assay type: physicochemical
Conditions: thermodynamic from solid
Procedure: The invention is suitable for active ingredients which have a solubility in water of at least 10 g/l, preferably at least 30 g/l, particularly preferably of at least 50 g/l, especially preferably of at least 100 g/l, 200 g/l, 300 g/l or 400 g/l at 20° C. (solubility in water based on standard methods such as, for example, Pharmeuropa—Technical Guide for the Elaboration of Monographs, 3rd Edition (1999), Chapter IV, Appendix IV (incorporated by reference) with vigorous shaking for 1 min, leaving to stand for 15 min at 20° C. in purified water). These ranges include all intermediate values and subranges.

SMILES	solubility at 15 min (20 °C)	solubility at 15 min (at 20° C., Pharmeuropa Technical Guide method, shaking for 15 min, read-out: solubility in water)
CNC[C@H](O)c1cccc(O)c1 [Phenylephrine hydrochloride]	500 mg/mL	
CC(C)(C)NCC(O)c1cc(O)cc(O)c1 (stereo not drawn) [Terbutaline sulphate]	500 mg/mL	
Cn1c(=O)c2[nH]cnc2n(C)c1=O [Theophylline]		8.4 mg/mL (≈ 46.6 mM)
